From PMC9609996, “SAR Study and Molecular Mechanism Investigation of Novel Naphthoquinone-furan-2-cyanoacryloyl Hybrids with Antitumor Activity” (Pharmaceutics, 2022)

Assays:
[1] = system: A549; experiment: CCK-8 anti-proliferation assay, A549; format: cell-based, human; settings: mean ± SD; for IC50: 48 h
Protocol: Human cervical cancer HeLa, human prostate cancer PC3, human colonic carcinoma HCT116, human lung carcinoma A549, human breast cancer MDA-MB-231, mouse melanoma B16, human ovarian cancer SKOV3, human hepatoma Hep3B, and human liver L02 cells were purchased from the Cell Bank of Shanghai Institute of Biochemistry and Cell Biology, Chinese Academy of Sciences (Shanghai, China). The HeLa, A549, B16, PC3, MDA-MB-231, HCT116, and L02 cells were cultured in Dulbecco’s modified Eagle medium (DMEM, Gibco Inc.; Gaithersburg, MD, USA). All cultures were supplied with 10% fetal bovine serum (FBS; YHSM, Beijing, China), 100 IU/mL of penicillin, and 100 μg/mL of streptomycin, and cells were incubated at 37 °C in an atmosphere of 5% CO2.
A CCK-8 kit (MCE, USA) was used to perform a CCK-8 assay. Cells were plated and grown in the 96-well plates for the indicated period (48 h) in the incubator, followed by an incubation with the CCK-8 solutions for 1–4 h. Subsequently, the absorbance (450 nm) was measured by a microplate reader. The median inhibitory concentration (IC50) was determined from the dose–response curve. Experiments were performed in a triplicate.

[2] = biological target: recombinant STAT3 (Homo sapiens, UniProt P40763); experiment: Biolayer interferometry (BLI) assay; settings: 5c 7.81 to 250 μM, 25 °C, read-out: binding affinity (KD)
Protocol: To confirm that compound 5c is a direct STAT3 inhibitor, a BLI (Biolayer interferometry) analysis was performed. Briefly, recombinant STAT3 with a His-tag was immobilized on SSA biosensors, and the dissociation constants were determined by measuring the binding to serial dilutions of 5c at concentrations ranging from 7.81 to 250 μM (Figure 10A). The signal was collected, and the kinetic affinity was calculated by the software. The steady-state curve reaches saturation (Figure 10B).
Purified recombinant STAT3 proteins were biotinylated using the EZ-Link biotinylation reagent (Thermo Fisher Scientific). Briefly, the protein and biotinylation reagent were mixed with a 1:1 molar ratio in PBS at 4 °C. Low biotinylation reagent concentration was applied to avoid protein over-biotinylation. These reaction mixtures were incubated at room temperature for 30 min to allow for the completion of the reaction. Reaction mixture was then dialyzed using 10K MWCO dialysis cassettes (Thermo Fisher Scientific) to remove unreacted biotinylation reagent.
BLI experiments were performed using an OctetRED96 instrument from ForteBio. All assays were run at 25 °C with continuous 1000 RPM shaking. […] The resulting data were analyzed based on a 1:1 binding model from which the kon and koff values were obtained. After, the KD values were calculated.

[3] = system: HeLa cells; experiment: Colony formation assay; format: cell-based, human; settings: treated 24 h, cultured two weeks
Protocol: HeLa cells were cultured at 1 × 10^3 cells per well in a 6-well plate with a regular growth medium for 12 h. After the cells were fixed on the wall, they were treated with different concentrations of compound 5c or 0.1% DMSO for 24 h. Then, the cells were cultured in a fresh medium for two weeks until the colonies were visible. A crystal violet staining solution (Beyotime, Shanghai, China) was used to stain the colonies for 30 min, and the result was recorded by a smartphone. The colonies were defined as >50 cells/colony.

[4] = system: ROS in HeLa cells; experiment: Cellular ROS detection (DCFDA flow cytometry); format: cell-based, human; settings: 6, 9, 12 μM, 6 h
Protocol: To measure reactive oxygen species (ROS) production, 2′,7′-dichlorofluorescein diacetate (DCFDA) (Thermo Fisher Scientific, Waltham, MA, USA; D399) was used. DCFDA is a fluorogenic dye that, after diffusion into the cell, is oxidized by ROS into 2′,7′-dichlorofluorescein (DCF), a highly fluorescent compound that can be detected by fluorescence spectroscopy. To measure ROS production, HeLa cells were treated with compound 5c at 6 μM, 9 μM, and 12 μM for 6 h. Then, cells were washed with pre-warmed 1X PBS and were incubated at 37 °C with 10 μM of DCFDA for 30 min in PBS. Subsequently, the HeLa cells were washed and analyzed in FL-1 using a FACScalibur flow cytometer (BD, USA) and using CELL Quest software (BD Biosciences, San Jose, CA, USA). Live cells were gated according to their forward scatter (FSC) and side scatter (SSC) properties. For each analysis, 20,000 events were recorded.

Chain of recombinant STAT3 (P40763 whole entry): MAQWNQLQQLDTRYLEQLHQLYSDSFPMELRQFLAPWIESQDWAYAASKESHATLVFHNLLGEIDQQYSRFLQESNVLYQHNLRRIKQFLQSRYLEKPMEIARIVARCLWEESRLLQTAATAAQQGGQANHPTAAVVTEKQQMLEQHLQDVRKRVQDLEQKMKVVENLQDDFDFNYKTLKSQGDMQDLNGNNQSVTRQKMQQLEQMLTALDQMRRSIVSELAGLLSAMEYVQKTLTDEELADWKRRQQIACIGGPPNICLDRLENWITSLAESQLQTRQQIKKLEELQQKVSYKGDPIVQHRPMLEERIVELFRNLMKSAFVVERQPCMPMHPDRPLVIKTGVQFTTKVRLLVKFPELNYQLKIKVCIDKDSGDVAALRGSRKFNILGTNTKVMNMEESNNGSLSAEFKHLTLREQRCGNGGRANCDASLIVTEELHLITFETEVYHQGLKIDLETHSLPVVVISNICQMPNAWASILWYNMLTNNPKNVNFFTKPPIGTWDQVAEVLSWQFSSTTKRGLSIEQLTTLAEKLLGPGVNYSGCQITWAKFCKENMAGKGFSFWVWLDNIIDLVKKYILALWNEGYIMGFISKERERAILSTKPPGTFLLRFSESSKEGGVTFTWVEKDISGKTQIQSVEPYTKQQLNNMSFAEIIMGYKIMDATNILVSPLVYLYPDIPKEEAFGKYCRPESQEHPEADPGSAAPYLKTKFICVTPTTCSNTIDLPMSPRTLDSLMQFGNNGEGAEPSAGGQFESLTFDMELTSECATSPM

IC50 [1]: 35.27 ± 0.07 µM
IC50 ([1]; Homo sapiens, A549, 48 h): > 20.5 µM
Kd [2]: 13 µM
SMILES: N#C/C(=C\c1ccc(C2=CC(=O)c3ccccc3C2=O)o1)C(=O)NCCN1CCOCC1 [Compound 5c, (E)-2-cyano-3-(5-(1,4-dioxo-1,4-dihydronaphthalen-2-yl)furan-2-yl)-N-(2-morpholinoethyl)acrylamide]
inhibition at 20 µM ([1]; Homo sapiens, A549, 20 μM, read-out: Inhibition Rate (%) at 20 μM A549): 24.69 ± 0.04%
colony forming ability of HeLa cells [3]: significantly inhibited
level of ROS in cancer cells [4]: significantly increased
